For assay [1], the system named is mouse IOP. Nature of the assay: Mouse IOP after topical application, invasive servo-null micropipette system (SNMS). Type of assay: in vivo, Black Swiss mice. As to conditions: endpoint 10 min. The gist of the method: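 Black Swiss outbred mice, 7-9 weeks, under i.p. ketamine plus topical proparacaine. Drugs applied topically as droplets with <2% DMSO (none for hydrophilic compounds) and 0.0005% benzalkonium chloride, 295-300 mOsm. IOP measured invasively by servo-null micropipette 10 min after a single application.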

The subject of assay [2] is mouse IOP. The assay is described as follows: Mouse IOP after topical application, non-invasive pneumotonometry. Type of assay: in vivo, Black Swiss mice. In short, it runs like this:
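Black Swiss outbred mice (7-9 weeks, mixed sex) under intraperitoneal ketamine plus topical proparacaine 0.5%. Drugs applied topically as […] droplets three times, containing <2% DMSO and 0.0005% benzalkonium chloride; IOP measured non-invasively by pneumotonometry at 10-min intervals from a stereotactically fixed probe position.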

The target of assay [3] is T1, human A2B adenosine receptor (Homo sapiens, UniProt P29275).
T1 construct: expressed in transfected cells; host or cells: CHO cells (stably transfected)
T1 sequence (P29275 1-332): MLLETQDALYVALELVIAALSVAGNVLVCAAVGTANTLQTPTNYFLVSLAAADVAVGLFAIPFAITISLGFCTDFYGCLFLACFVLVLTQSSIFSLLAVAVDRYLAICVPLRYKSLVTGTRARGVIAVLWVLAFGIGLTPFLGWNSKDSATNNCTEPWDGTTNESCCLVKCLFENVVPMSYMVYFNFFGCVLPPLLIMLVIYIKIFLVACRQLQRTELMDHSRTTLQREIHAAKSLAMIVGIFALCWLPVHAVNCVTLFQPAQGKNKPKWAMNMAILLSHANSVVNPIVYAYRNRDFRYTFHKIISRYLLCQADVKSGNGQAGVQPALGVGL
Nature of the assay: Potency at human A2B adenosine receptor. Format: binding. The following applies: at 10 μM.

Assay [4] has as its target T2, rat A3 receptors (Rattus norvegicus, UniProt P28647).
T2 construct: expressed in transfected cells; host or cells: CHO cells (stably transfected)
T2 sequence (P28647 1-320): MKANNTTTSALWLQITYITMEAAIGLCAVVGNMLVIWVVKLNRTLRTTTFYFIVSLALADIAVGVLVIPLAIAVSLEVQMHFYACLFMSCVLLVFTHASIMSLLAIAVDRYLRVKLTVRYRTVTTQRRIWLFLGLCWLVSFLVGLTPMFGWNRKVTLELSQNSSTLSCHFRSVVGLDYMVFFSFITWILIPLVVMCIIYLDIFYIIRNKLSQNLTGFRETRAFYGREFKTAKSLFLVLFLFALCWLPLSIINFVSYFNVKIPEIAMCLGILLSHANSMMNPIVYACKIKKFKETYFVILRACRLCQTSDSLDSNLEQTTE
The assay is described as follows: Radioligand binding, [125I]AB-MECA, CHO cells. As to conditions: means±SEM, N=3-4.

As a reminder, the Ki is a measure of affinity in units of concentration, obtained from inhibition or displacement. Higher therefore signals lower affinity. On to `OC1CSC(n2cnc3c(NCc4cccc(I)c4)nc(Cl)nc32)C1O` (stereo not shown) [MRS-3820, 2-(2-chloro-6-(3-iodobenzylamino)-9H-purin-9-yl)tetrahydrothiophene-3,4-diol], for which the “Δ(IOP) Servo-Null” value in assay [1] (topical droplet 5 μM (0.2% DMSO)) was −2.2 ± 0.7 mm Hg; in assay [1] (topical droplet 25 μM (0.2% DMSO)), −4.9 ± 1.7 mm Hg; in assay [1] (topical droplet 75 μM (0.6% DMSO)), −3.1 ± 1.4 mm Hg; in assay [1] (topical droplet 250 μM (2% DMSO)) it was −1.5 ± 0.6 mm Hg. For the same compound, the “time to significant reduction of non-invasively measured IOP” value in assay [2] (250 μM droplet) is not above 20 min. For the same compound, in assay [2] (250 μM droplet, normal mice, non-invasive, baseline 16.7±1.1), the “reduction in IOP 30 minutes post-administration” value amounted to 4.2±0.7 mmHg. Also, the “reduction in IOP 20 min following application” value in assay [2] (250 μM, non-invasive) stood at 3.4±0.7 mm Hg. Also, the “Δ(IOP) Pneumotonometer” value in assay [2] (topical droplets 25 μM (0.2% DMSO), 30 min) was −0.6 ± 1.5 mm Hg. Also, in assay [3], the “potency at A2B” value was less than 10%. For the same compound, affinity in assay [4] was put at a Ki of 3.9 ± 1.2 nM.
